According to patent US20100330685A1, “DIAMINORHODAMINE DERIVATIVE” (SEKISUI MEDICAL CO., LTD., priority 2000, published 2010):
Counter-ions that a name gives are not always drawn.

Legend:
[1] = tested on: Bovine aorta endothelial cells; assay: Imaging of nitric oxide in cells; type: cell-based
Experimental: Bovine aorta endothelial cells were cultured on an imaging dish. The culture broth was changed to DMEM medium (supplemented with 0.2% DMSO) containing DAR-4M AM (10 μM) prepared in Example 5, and incubated at 37° C. for 30 minutes to load DAR-4M AM on the cells. The cells were washed, and the culture broth was changed again to DMEM medium not containing DAR-4M AM. After incubation at 37° C. for 1 hour, imaging was performed. The cells were examined with a fluorescence microscope equipped with an excitation filter (520 to 550 nm), a dichromic mirror (565 nm), and a barrier filter (580 nm, long pass). The measurement was performed in a warm box kept at 37° C. Imaging interval was set to be 10 seconds, and images captured by a cooled charge-coupled device camera were recorded and analyzed by an image analyzer. The results in the figure are shown with averaged change of relative fluorescence intensity of arbitrary seven cells based on the fluorescence intensity at the time of the start of the measurement. The fluorescence intensity was increased by stimulation with bradykinin (FIG. 3(A)), but the fluorescence intensity was not increased in the presence of a nitric oxide synthetase inhibitor (1 mM L-NAME) (FIG. 3(B)).

| Compound | uptake into the cells ([1]; 10 μM in DMEM medium, 37° C., 30 minutes) | fluorescence intensity in the presence of a nitric oxide synthetase inhibitor ([1]; 1 mM L-NAME, cells loaded with 10 μM) | fluorescence intensity on stimulation with bradykinin ([1]; cells loaded with 10 μM, 37° C., 30 minutes, average of seven cells) | melting point | reaction with nitric oxide in the cells ([1]; DAR-4M produced in the cells from DAR-4M AM) |
| --- | --- | --- | --- | --- | --- |
| CNc1ccc(-c2c3ccc(N(C)C)cc3[o+]c3cc(N(C)C)ccc23)c(C(=O)OCOC(C)=O)c1N.[I-] [DAR-4M AM, 3,6-bis(dimethylamino)-9-[2-acetoxymethoxycarbonyl-3-amino-4-(N-methylamino)phenyl]xanthylium iodide] | taken into the cells | not increased | increased | 177 to 178 °C | – |
| CNc1ccc(-c2c3ccc(N(C)C)cc3[o+]c3cc(N(C)C)ccc23)c(C(=O)[O-])c1N [DAR-4M, 3,6-bis(dimethylamino)-9-[3-amino-4-(N-methylamino)-2-carboxyphenyl]xanthylium intramolecular salt] | – | – | – | – | specifically reacted with nitric oxide |
| CCN(CC)c1ccc2c(-c3ccc(NC)c(N)c3C(=O)OCOC(C)=O)c3ccc(N(CC)CC)cc3[o+]c2c1.[I-] [DAR-M AM, 3,6-bis(diethylamino)-9-[2-acetoxymethoxycarbonyl-3-amino-4-(N-methylamino)phenyl]xanthylium iodide] | – | – | – | 147 to 150 °C | – |
